According to US5750504A, “Antimicrobial proteins” (Zeneca Agrochemicals, priority 1996, dated 1998):

Key:
Assay in all cases: Antifungal activity assay (microspectrophotometry)
Type in all cases: cell-based
[1] = system: Ascochyta pisi; conditions: strain MUCL30164, host Pisum, inoculum Sp, period of incubation in AFP-solution 48
Procedure: (§1) Antifungal activity was measured by microspectrophotometry as previously described (Broekaert, 1990, FEMS Microbiol Lett, 69:55-60). Routinely, tests were performed with 20 μl of a (filter-sterilized) test solution and 80 μl of a suspension of fungal spores (2×10^4 spores/ml) in half strength potato dextrose broth (1/2 PDB). […] Control microcultures contained 20 μl of sterile distilled water and 80 μl of the fungal spore suspension.
(§2) Unless otherwise stated the test organism was Fusarium culmorum (strain IMI 180420) and incubation was done at 25° C. for 48 hours. Percent growth inhibition is defined as 100 times the ratio of the corrected absorbance of the control microculture minus the corrected absorbance of the test microculture over the corrected absorbance at 595 nm of the control microculture. The corrected absorbance values equal the absorbance at 595 nm of the culture measured after 48 hours minus the absorbance at 595 nm measured after 30 min.
(§3) The antifungal potency of the purified proteins was assessed on different plant pathogenic fungi, using the assay described in Example 1. Growth of fungi, collection and harvest of fungal spores and preparation of mycelial fragments were done as previously described (Broekaert et al, 1990, FEMS Microbiol Lett, 69:55-60). Serial dilutions of the antifungal proteins were applied to the fungi, either using growth medium SMF- (the synthetic growth medium of Example 1), medium SMF+ (medium SMF- supplemented with 1 mM CaCl2 and 50 mM KCl), growth medium 1/2 PDB- (half strength potato dextrose broth as in Example 1) or growth medium 1/2 PDB+ (medium 1/2 PDB- supplemented with 1 mM CaCl2 and 50 mM Kcl). The percent growth inhibition was measured by microspectrophotometry. The concentration required for 50% growth inhibition after 48 h of incubation (IC50 value) was calculated from the dose-reponse curves.
(§4) The abbreviations used are: IC50 =concentration required for 50% growth inhibition determined as described in Example 1; ND=not determined; Sp=spores; PrSp=spores pregerminated in the medium for 24 hours; MF=mycelial fragments preincubated for 48 hours in the medium prior to addition of the proteins; BHR=broad host range; SF=saprophytic fungus; SMF-=synthetic growth medium as described in Example 1; SMF+=SMF- supplemented with 1 mM CaCl2 and 50 mM KCl; 1/2PDB-=half strength potato dextrose broth as described in Example 1; 1/2PDB+=1/2PDB- supplemented with 1 mM CaCl2 and 50 mM KCl.

[2] = system: Botrytis cinerea; conditions: strain K1147, host BHR, inoculum Sp, period of incubation in AFP-solution 48
Procedure: as §1, §2, §3, §4

[3] = system: Cladosporium sphaerospermum; conditions: strain K0791, SF, inoculum Sp, period of incubation in AFP-solution 48
Procedure: as §1, §2, §3, §4

[4] = system: Fusarium culmorum; conditions: for IC50: host Cereals, inoculum Sp, period of incubation in AFP-solution 48
Procedure: as §1, §2, §3, §4

[5] = system: Mycoshpaerella fijiensis; conditions: strain FUL549; host Musa; medium 1/2PDB+; inoculum MF; period of incubation in AFP-solution 96
Procedure: as §1, §2, §3, §4

[6] = system: Penicillum digitatum; conditions: host Citrus fruit, inoculum Sp, period of incubation in AFP-solution 48
Procedure: as §1, §2, §3, §4

[7] = system: Septoria tritici; conditions: strain K1097, host Triticum, inoculum Sp, period of incubation in AFP-solution 48
Procedure: as §1, §2, §3, §4

[8] = system: Trichoderma viride; conditions: strain K1127, SF, inoculum Sp, period of incubation in AFP-solution 48
Procedure: as §1, §2, §3, §4

[9] = system: Verticillium albo-atrum; conditions: strain K0937, host Lycoperisicum, inoculum Sp, period of incubation in AFP-solution 48
Procedure: as §1, §2, §3, §4

[10] = system: Alternaria brassicae; conditions: for IC50: host Brassica, inoculum Sp, period of incubation in AFP-solution 66
Procedure: as §1, §2
as §3, with “The concentration required for 50% growth inhibition after 48 h of incubation (IC50 value) was calculated from the dose-reponse curves.” left out
as §4

[11] = system: Alternaria longipes; conditions: strain CBS620.83, host Nicotiana, inoculum Sp, period of incubation in AFP-solution 70
Procedure: as §1, §2
as §3, with “The concentration required for 50% growth inhibition after 48 h of incubation (IC50 value) was calculated from the dose-reponse curves.” left out
as §4

[12] = system: Cercospora beticola; conditions: strain SES; host Beta; medium 1/2PDB+; inoculum PrSp; period of incubation in AFP-solution
Procedure: as §1, §2
as §3, with “The concentration required for 50% growth inhibition after 48 h of incubation (IC50 value) was calculated from the dose-reponse curves.” left out
as §4

[13] = system: Leptospaeria maculans; conditions: for antifungal activity on Leptospaeria maculans (in words): in 1/2PDB+; for IC50: host Brassica
Procedure: as §1, §2
as §3, with “The concentration required for 50% growth inhibition after 48 h of incubation (IC50 value) was calculated from the dose-reponse curves.” left out
as §4

[14] = strain LM36uea, medium 1/2PDB+, inoculum Sp, period of incubation in AFP-solution 48
[15] = strain LM36uea, medium 1/2PDB-, inoculum Sp, period of incubation in AFP-solution 48
[16] = strain SES1, medium 1/2PDB+, inoculum PrSp, period of incubation in AFP-solution 120
[17] = strain SES2, medium 1/2PDB+, inoculum PrSp, period of incubation in AFP-solution 120

Substance	IC50 ([1]; medium SMF+)	IC50 ([1]; medium SMF-)	IC50 ([2]; medium 1/2PDB+)	IC50 ([2]; medium 1/2PDB-)	IC50 ([3]; medium 1/2PDB+)	IC50 ([3]; medium 1/2PDB-)	IC50 ([4]; strain IMI180420, medium SMF+)	IC50 ([4]; strain IMI180420, medium SMF-)	IC50 ([4]; strain K0311, medium 1/2PDB+)	IC50 ([4]; strain K0311, medium 1/2PDB-)	IC50 [5]	IC50 ([6]; strain K0679, medium 1/2PDB-)	IC50 ([6]; strain K0879, medium 1/2PDB+)	IC50 ([7]; medium 1/2PDB+)	IC50 ([7]; medium 1/2PDB-)	IC50 ([8]; medium 1/2PDB+)	IC50 ([8]; medium 1/2PDB-)	IC50 ([9]; medium 1/2PDB+)	IC50 ([9]; medium 1/2PDB-)	IC50 ([10]; medium SMF+)	other results
Ah-AMP1: Aesculus hippocastanum antimicrobial protein 1; 5 kDa polypeptide purified from seeds, 50 amino acids, SEQ ID NO 2 (LCNERPSQTWSGNCGNTAHCDKQCQDWEKASHGACHKRENHWKCFCYFNC)	15 µg/mL	0.8 µg/mL	> 100 µg/mL	25 µg/mL	12 µg/mL	0.5 µg/mL	25 µg/mL	1.5 µg/mL	> 100 µg/mL	12 µg/mL	0.75 µg/mL	6 µg/mL	25 µg/mL	1.5 µg/mL	0.5 µg/mL	> 100 µg/mL	> 100 µg/mL	> 100 µg/mL	6 µg/mL	3 µg/mL	IC50 ([10]; medium SMF-): 1.5 µg/mL; reduction of activity in medium SMF- versus SMF+ ([10]; on Alternaria brassicae): two-fold; IC50 ([11]; medium SMF+): 100 µg/mL; IC50 ([11]; medium SMF-): 25 µg/mL; IC50 [12]: 1.5 µg/mL; antifungal activity on Leptospaeria maculans (in words) [13]: highly active; IC50 [13, 14]: 6 µg/mL; IC50 [13, 15]: 0.5 µg/mL; IC50 [13, 16]: < 0.75 µg/mL; IC50 [13, 17]: < 0.75 µg/mL
Hs-AFP1: Heuchera sanquinea antifungal protein 1; 5 kDa polypeptide purified from seeds, 54 amino acids, SEQ ID NO 1 (DGVKLCDVPSGTWSGHCGSSSKCSQQCKDREHFAYGGACHYQFPSVKCFCKRQC)	> 5 µg/mL	1.5 µg/mL	25 µg/mL	6 µg/mL	3 µg/mL	1 µg/mL	1 µg/mL	0.5 µg/mL	3 µg/mL	1 µg/mL	12.5 µg/mL	1 µg/mL	3 µg/mL	3 µg/mL	0.5 µg/mL	> 100 µg/mL	15 µg/mL	30 µg/mL	12 µg/mL	3 µg/mL	antifungal activity on Fusarium culmorum (in words) ([4]; in 1/2PDB+): highly active; IC50 ([10]; medium SMF-): 1.5 µg/mL; IC50 ([11]; medium SMF+): 6 µg/mL; IC50 ([11]; medium SMF-): 0.75 µg/mL; IC50 [12]: 1.5 µg/mL; antifungal activity on Leptospaeria maculans (in words) [13]: is not; IC50 [13, 14]: > 100 µg/mL; IC50 [13, 15]: 25 µg/mL; IC50 [13, 16]: > 100 µg/mL; IC50 [13, 17]: > 100 µg/mL
